According to a melting point compilation (Tetko et al.; mined from patent text by program, amines drawn as free bases though some values may be those of a salt):

First: CCCCCCCCCCCCCCCCCCc1ccc(O)c([N+](=O)[O-])c1
Second: CCCCCCCCCCCCCCOc1ccc(C(=O)OCC)cc1
The melting point of the first is higher: 71 °C for the first, 34 to 35 °C for the second.

Compared with `N#Cc1cccc(-c2cnco2)n1`, `N#Cc1cccc(-c2nc(N)cc3cccnc23)c1` is lower in melting point: 148 °C for the first, 102 to 104 °C for the second.

Compared with `O=C(NC1C2CC3CC(C2)CC1C3)C1CCCCN1Cc1ccccn1` (stereo not drawn), `O=C(c1ccccc1)c1ccc(OC(=O)C2CCCCC2)cc1` is lower in melting point: 126 to 127 °C for the first, 111 to 112 °C for the second.

Compared with `CCOC(=O)C(C)Cc1cccc(-c2nc(=O)c3ccccc3s2)n1` (stereo not drawn), `CC(C)On1c(-c2ccccc2)nc2c(N)nc3ccccc3c21` is higher in melting point: 120 to 121 °C for the first, 188 to 191 °C for the second.

First: CCOC(=O)C(C)=CC=CC(C)=CC=CC=C(C)C=CC=C(C)C1OCC(C)(C)CO1
Second: CCOC(=O)c1cn(C2CC2)c2c(CSCC)c(N3CCOCC3)c(F)cc2c1=O
The melting point of the first is lower: 158 °C for the first, 165 to 167 °C for the second.

First: O=C(O)c1cc(=O)n(Cc2ccccc2S(=O)(=O)O)[nH]1
Second: NS(=O)(=O)Oc1cccc(C(=O)c2ccccc2)c1
The melting point of the first is higher: 223 to 226 °C for the first, 72 to 74 °C for the second.

Compared with `CC(C)(C)c1ccccc1N1CCN(C(=O)C(=O)Nc2ccccn2)CC1`, `CN(C)CCNC(=O)N1CCN(c2ccc(C(N)=O)cc2)CC1` is higher in melting point: 168 to 172 °C for the first, 193 to 195 °C for the second.

First: c1c2c(cc3c1OCO3)CCNCC2
Second: CCCc1nc(CSc2ccc(CCC(=O)O)cc2)c(C(=O)OCC)n1Cc1cc2c(cc1Cl)OCO2
The melting point of the first is lower: 82 to 84 °C for the first, 174 °C for the second.

Compared with `O=S=c1cc(-c2ccc(Cl)cc2)ss1`, `CCOC(=O)Cc1sc(S)nc1-c1ccc(Cl)cc1` is higher in melting point: 123 to 125 °C for the first, 176 to 178 °C for the second.

First: COc1ccc(N2C(=O)N(c3cccc(C#N)c3)c3nc(Nc4cccc(CCOC(C)=O)c4)ncc3C2C)cc1 (stereo not drawn)
Second: COc1ccc(CN(C)CCCCc2ccc(NC(=O)c3cccc4c(=O)c5ccccc5sc34)cc2)cc1OC
The melting point of the first is higher: 170 to 172 °C for the first, 156 °C for the second.

First: CC#Cc1cc(=O)n2nc(SCCCCCC)sc2n1
Second: CCCCCCc1cc(SC)ccc1O
The melting point of the first is higher: 94 to 97 °C for the first, 42 to 44 °C for the second.

First: CCn1nc(-c2ccccc2)c(C(C)=O)c(Nc2cc(Br)cc3cccnc23)c1=O
Second: CN(C)C(=O)Cn1nc(-c2ccccc2O)nc1-c1ccccc1O
The melting point of the first is lower: 147 to 148 °C for the first, 196 to 197 °C for the second.

First: CNC(=O)N(C(=O)Nc1ccccc1)c1ccccc1
Second: Cc1nc(NC(=O)c2ccccc2S(C)(=O)=O)sc1C(=O)NCc1ccccc1
The melting point of the first is lower: 145 to 147 °C for the first, 239 to 242 °C for the second.

First: CC(=O)NC[C@H]1CN(c2ccc(N3CCC(=C(C#N)n4ccnc4)CC3)c(F)c2)C(=O)O1
Second: CC(C)(C)OC(=O)C1CCN(C(=O)C2CN(c3ccc(-c4noc(=O)[nH]4)cc3)C(=O)O2)CC1 (stereo not drawn)
The melting point of the first is higher: 196 to 198 °C for the first, 171 to 175 °C for the second.

First: O=C(NCCCCc1ccc(-c2ccc(=O)[nH]n2)cc1)c1cccnc1
Second: O=c1cc(-c2nnn[nH]2)oc2c(/C=C/c3ccc(OCCCCc4ccc(F)cc4)cc3)cccc12
The melting point of the first is higher: 190 to 191 °C for the first, 174 to 175 °C for the second.

Compared with `COc1ccc(C(=O)c2cc(-c3ccc(NC(C)=O)cc3)c(N3CCOCC3)s2)cc1`, `COc1ccc(-c2nc3c(O)cccc3s2)cc1` is lower in melting point: 198 °C for the first, 128 to 130 °C for the second.

Compared with `Cc1cccc(-c2nc3ccc(Cl)cn3c2-c2ccnc(-c3ccc(CN4CCOCC4)cc3)c2)n1`, `Cc1cccc(-c2n[nH]cc2-c2ccc(F)c(-c3ccc(S(N)(=O)=O)c(F)c3)c2)n1` is lower in melting point: 157 °C for the first, 119 to 121 °C for the second.

First: O=Cc1cccc(Oc2ccccc2)c1F
Second: CC(C)(C)C(=O)C(Cl)Oc1ccc(-c2ccccc2)cc1 (stereo not drawn)
The melting point of the first is lower: 75 to 77 °C for the first, 185 to 190 °C for the second.

Compared with `CCOC(=O)C(Sc1ccc(O)cc1)c1ccc(Br)cc1` (stereo not drawn), `N#Cc1cc(/C=C/C(=O)Nc2ccc(Br)cc2)ccc1F` is higher in melting point: 55.6 °C for the first, 205 to 210 °C for the second.

First: O=C1CCC(=O)C1C(=O)CCc1ccc(Cl)c(Cl)c1
Second: CCOC(=O)C1(NS(=O)(=O)c2ccc3c(Cl)cnc(Cl)c3c2)CCCC1
The melting point of the first is lower: 126 to 127 °C for the first, 127 to 129 °C for the second.

First: NS(=O)(=O)c1cc2c(s1)SCC(=O)N2
Second: CC(=O)OCc1nc2sc(S(N)(=O)=O)cc2c(=O)n1-c1ccccc1Cl
The melting point of the first is higher: 243 to 245 °C for the first, 192 to 194 °C for the second.

Compared with `COc1cc(C(N)=O)ccc1OCCCN1CCC(c2noc3cc(F)ccc23)CC1`, `COCCCNc1cccc(Oc2ccc(-c3cn(C4CCOC4)c4ncnc(N)c34)cc2)c1C#N` (stereo not drawn) is higher in melting point: 163 to 164 °C for the first, 183 to 184 °C for the second.

First: Cc1ccc(-c2nn(C(C)(C)C)c(N)c2C#N)cc1
Second: COc1cc(-c2ccc(C#N)cc2)cc(C=O)c1O
The melting point of the first is lower: 174 to 176 °C for the first, 177 to 178 °C for the second.

First: CS(=O)c1nnc2n1C=Cc1ccccc1C2 (stereo not drawn)
Second: CCOC(=O)Cn1nc(O)c2ccccc21
The melting point of the first is lower: 176 to 177 °C for the first, 181 to 182 °C for the second.

Compared with `COC(=O)CCn1cc(C2=C(c3cn(C)c4ccccc34)C(=O)NC2=O)c2ccccc21`, `CCOC(=O)C[C@@H]1C(=O)N(S(=O)(=O)c2ccc(OC)cc2)C=C[C@@H]1c1ccccc1` is lower in melting point: 209 to 211 °C for the first, 111 to 113 °C for the second.

First: COc1cc(-c2ncsc2-c2ccc(C(F)(F)F)cc2)cc(OC)c1OC
Second: O=c1c2cccc3cccc(c32)c2nc3cc(C(F)(F)F)ccc3n12
The melting point of the first is lower: 110 to 113 °C for the first, 212 to 214 °C for the second.

First: Brc1cncc(N2C=CCC2)c1
Second: CC(=O)N1CCCc2ccc(S(=O)(=O)C[N+](=O)[O-])cc21
The melting point of the first is lower: 98 to 99 °C for the first, 155 °C for the second.

First: CCNc1nc2ccc(CCc3ccc(CN(C)C)o3)cc2o1
Second: CCCc1cc(C#N)sc1-c1ccc2c(c1)C(C)(C)OC(=O)N2
The melting point of the first is lower: 72 to 73 °C for the first, 160 to 162 °C for the second.

First: CCOP(=O)(Cc1cc(C)cc(C)n1)OCC
Second: CCOC(=O)NC(C)C(=O)c1ccc(O)c(Cl)c1 (stereo not drawn)
The melting point of the first is higher: 109 to 112 °C for the first, 106 to 108 °C for the second.

First: Oc1cncc(Cl)c1CCCOc1cccnc1Oc1cccc(Cl)c1
Second: Nc1c(Cl)cc(C(O)CNCCCCCC(=O)OCCc2cccc3ccccc23)cc1Cl (stereo not drawn)
The melting point of the first is higher: 95 to 96 °C for the first, 60 to 61 °C for the second.

First: CCCC(=O)c1cnc2c(OC)cccc2c1Nc1c(C)cc(O)c(O)c1C
Second: CC(C)c1nc2c(C(F)(F)F)cccc2c(O)c1C(=O)O
The melting point of the first is lower: 151 to 153 °C for the first, 204 °C for the second.

Compared with `CCC(CO)(c1cccs1)N(C)C` (stereo not drawn), `CN(C)N=C(N)Nc1c(Cl)cccc1Cl` is higher in melting point: 66 to 68 °C for the first, > 280 °C for the second.

First: COC(=O)c1cc(-c2ccc(S(C)(=O)=O)cc2)n(-c2ccc(F)cc2)c1C
Second: COc1cc(-n2nc(C#N)cc2-c2ccc(S(C)(=O)=O)cc2)ccc1Br
The melting point of the first is lower: 154 to 155 °C for the first, 212 to 214 °C for the second.

First: CSC(C#N)NC(=O)c1cccc(Cl)c1 (stereo not drawn)
Second: N#CCCCC(=O)c1cc2ccccc2o1
The melting point of the first is higher: 115 to 117 °C for the first, 79 °C for the second.

First: COc1cccc2sc(C3(c4ccc(S(N)(=O)=O)cc4)C=C(C(F)(F)F)NN3)nc12 (stereo not drawn)
Second: Cc1noc(NS(=O)(=O)c2ccc(NCc3ccccc3)cc2)c1C
The melting point of the first is higher: 276 to 278 °C for the first, 47 to 48 °C for the second.

First: CCCCCCN1N=C(c2ccc(F)cc2)c2cc(F)ccc2CS1(=O)=O
Second: O=C(c1ccc(Cl)cc1)N1N=C(C(F)(F)F)CC1(O)c1cc(F)ccc1F (stereo not drawn)
The melting point of the first is lower: 93 to 96 °C for the first, 110 to 113 °C for the second.

`CCCCn1c(=O)n(C)c(=O)c2nn(S(=O)(=O)CCCCl)cc21` and `O=S(=O)(NCCCO)c1c(Cl)cc(Cl)cc1Cl` cannot be ordered by melting point: 105 to 106 °C for the first, 104 to 106 °C for the second.

First: CC(C)C(NC(=O)OCCN1CCCC1)C(=O)NC(Cc1ccccc1)C(O)C(Cc1ccccc1)NC(=O)C(NC(=O)OCc1ccccc1)C(C)C (stereo not drawn)
Second: O=C(c1ccc(NS(=O)(=O)c2ccccc2Cl)cc1)N1Cc2cccn2Cc2ccccc21
The melting point of the first is lower: 143 to 146 °C for the first, 206 to 210 °C for the second.

First: COc1ccc(-n2c(=O)c(Cl)nc3cccnc32)cc1
Second: COc1ccc(C2Sc3cc(Cl)ccc3NC(=O)C2=O)cc1 (stereo not drawn)
The melting point of the first is higher: > 300 °C for the first, 168 to 169 °C for the second.

First: COC(=O)c1cn(-c2ncnc3c2ccn3C)c2ncccc12
Second: COC(=O)c1ccc(NC(=O)c2ccc(Br)nc2)nc1
The melting point of the first is higher: 207 °C for the first, 173 to 174 °C for the second.

Compared with `Nc1c(Cl)ncnc1N[C@@H]1C=C[C@H](CO)C1`, `CC(CO)c1ccc2oc3nc(N)c(C(=O)O)cc3c(=O)c2c1` (stereo not drawn) is higher in melting point: 144 to 146 °C for the first, > 300 °C for the second.

First: CC(C)(C)C(=O)OCOC(=O)c1cccnc1Nc1cccc(C(F)(F)F)c1
Second: CNc1nc(Nc2cccc(OCCNC(=O)OC(C)(C)C)c2)ncc1[N+](=O)[O-]
The melting point of the first is lower: 55 to 56 °C for the first, 193 °C for the second.

First: CSc1cn(C)c2cc(Cl)sc2c1=O
Second: C#CCN1C(=O)COc2cc(-c3ncc(C(F)(F)F)c(C)c3Cl)c(F)cc21
The melting point of the first is higher: 231 to 234 °C for the first, 156 to 157 °C for the second.

Compared with `Cc1ncsc1NC(=O)Nc1ccc(-n2nc(C(F)(F)F)cc2C2CC2)cc1`, `Cc1cc(Oc2ccc3nc(COc4ccc(CC5SC(=O)NC5=O)cc4)n(C)c3c2)cc(C)c1NC(=O)Nc1ccc([N+](=O)[O-])cc1` (stereo not drawn) is higher in melting point: 124 to 126 °C for the first, 178 to 180 °C for the second.

First: Cc1nc(C)c(Cl)c(NCc2nccc(SCCCSc3ncccn3)c2C)n1
Second: CCCN(CC(C)n1c(CCOC)nc2c(N)nc3ccccc3c21)C(N)=S (stereo not drawn)
The melting point of the first is lower: 158 to 159 °C for the first, 172 to 173 °C for the second.

Compared with `CCCCc1nn2ccccc2c1C(=O)c1ccc(C#N)cc1`, `NCC(=O)N(N)c1ccc2ccccc2c1` is higher in melting point: 116 °C for the first, 147 to 148 °C for the second.

First: O=c1cc(-c2ccncc2)nc2n1CCCN2CCCc1c[nH]c2ccccc12
Second: C=CCOc1ccc(-c2cc3[nH]c4c(c(=O)n3n2)CN(C2CCCCC2)C4=O)cc1
The melting point of the first is lower: 230 to 232 °C for the first, > 320 °C for the second.

Compared with `CCOC(=O)CN1CC(OC)=CC1=O`, `COc1cc(C(=O)NC2CN(C)N(C)C2)cc(OC)c1OC` is higher in melting point: 54 to 56 °C for the first, 163 to 166 °C for the second.

First: C=C(C)C(=O)NCCCCCCCCCCCC(=O)O
Second: C[Si](C)(C)CCCCCCCCCCCCCCNc1ccc(C(=O)O)cc1
The melting point of the first is lower: 70.8 to 72.4 °C for the first, 105 to 107 °C for the second.

First: COc1nc(-c2ccc(OC(C)C)cc2)sc1C(=O)O
Second: COC(=O)c1cccc(Oc2ccc([N+](=O)[O-])cc2C(=O)OC)c1
The melting point of the first is higher: 109 to 110 °C for the first, 97 to 99 °C for the second.

First: CN1C(=O)c2ccccc2C2(CC(=O)NC2=O)C1=O (stereo not drawn)
Second: Clc1ccc(-c2coc3c(Br)cccc23)cc1Cl
The melting point of the first is higher: 224 to 225 °C for the first, 158 to 160 °C for the second.

In the case of `COc1cccnc1Br`, the melting point is reported as 34 °C.
